Consider four compounds from ChEMBL document CHEMBL4043204, “meso-Dihydroguaiaretic acid derivatives with antibacterial and antimycobacterial activity” (Bioorg Med Chem, 2017).

In one series the test system is Bacillus subtilis. Put plainly: Antibacterial activity against Bacillus subtilis. Format: functional.
The next series relates to Salmonella enterica. The series can be described thus: Antibacterial activity against Salmonella choleraesuis. Type of series: functional.
A further series concerns Jonesia denitrificans. The series can be described thus: Antibacterial activity against Listeria denitrificans. Type of series: functional.
Series [1] has as its system Staphylococcus aureus. The series can be described thus: Antibacterial activity against Staphylococcus aureus. Format: functional.
Series [2] has as its system Staphylococcus aureus. Put plainly: Antibacterial activity against methicillin-resistant Staphylococcus aureus. Type of series: functional.
For series [3], the system named is Mycobacterium tuberculosis. Put plainly: Antimycobacterial activity against Mycobacterium tuberculosis H37Rv ATCC 27294 assessed as inhibition of mycobacterial growth incubated for 2 weeks by MABA method. Type of series: functional. The conditions noted are these: for MIC: Mycobacterium tuberculosis, H37Rv ATCC 27294, 336 h. On the technique in general: Alamar Blue is a resazurin reagent that responds to reducing activity.

Series [4] relates to Stenotrophomonas maltophilia. The series can be described thus: Antibacterial activity against trimethoprim-sulfamethoxazole-resistant Stenotrophomonas maltophilia assessed as inhibition of microbial growth up to 50 ug/ml incubated for 24 hrs by microdilution assay. Format: functional. For orientation: Broth dilution looks for growth in wells or tubes with falling amounts of substance.

Series [5] deals with Staphylococcus haemolyticus. Put plainly: Antibacterial activity against linezolid-resistant Staphylococcus haemolyticus 2975 assessed as inhibition of microbial growth incubated for 24 hrs by microdilution assay. Type of series: functional. The conditions noted are these: Staphylococcus haemolyticus, 2975, 24 h.
Series [6] in a line: Selectivity index, ratio of IC50 for cytotoxicity against African green monkey Vero cells to MIC for Mycobacterium tuberculosis H37Rv ATCC 27294. Format: toxicity, cell-based. The conditions noted are these: read-out: Selectivity Index.
For the next series, the system named is Enterococcus faecium. The series can be described thus: Antibacterial activity against vancomycin-resistant Enterococcus faecium (10-984) assessed as inhibition of microbial growth incubated for 24 hrs by microdilution assay. Type of series: functional.
The next series concerns Pseudomonas aeruginosa. The series can be described thus: Antibacterial activity against carbapenem-resistant Pseudomonas aeruginosa (13-1391) assessed as inhibition of microbial growth up to 50 ug/ml incubated for 48 hrs by microdilution assay. Type of series: functional.
Series [7] has as its system Klebsiella pneumoniae. The series can be described thus: Antibacterial activity against NDM-1 positive Klebsiella pneumoniae (14-3335) assessed as inhibition of microbial growth up to 50 ug/ml incubated for 24 hrs by microdilution assay. Type of series: functional.
In series [8] the test system is Klebsiella pneumoniae. Put plainly: Antibacterial activity against extended-spectrum beta-lactamase-positive Klebsiella pneumoniae (14-2081) assessed as inhibition of microbial growth up to 50 ug/ml incubated for 24 hrs by microdilution assay. Format: functional.
The next series concerns Acinetobacter baumannii. Put plainly: Antibacterial activity against carbapenem-resistant Acinetobacter baumannii (12-666) assessed as inhibition of microbial growth up to 50 ug/ml incubated for 24 hrs by microdilution assay. Format: functional.
Series [9] relates to Escherichia coli. Put plainly: Antibacterial activity against oxacillin-resistant Escherichia coli OXA-48 assessed as inhibition of microbial growth up to 50 ug/ml incubated for 24 hrs by microdilution assay. Type of series: functional.
The next series relates to Providencia rettgeri. Put plainly: Antibacterial activity against NDM-1 positive Providencia rettgeri assessed as inhibition of microbial growth up to 50 ug/ml incubated for 24 hrs by microdilution assay. Type of series: functional.
The next series relates to Vero. Put plainly: Cytotoxicity against African green monkey Vero cells assessed as reduction in cell viability incubated for 24 hrs by trypan blue staining based assay. The conditions noted are these: Chlorocebus sabaeus.
For series [10], the system named is Staphylococcus aureus. Put plainly: Antibacterial activity against methicillin-resistant Staphylococcus aureus (14-2095) assessed as inhibition of microbial growth incubated for 24 hrs by microdilution assay. Type of series: functional.
Series [11] concerns Staphylococcus epidermidis. Put plainly: Antibacterial activity against linezolid-resistant Staphylococcus epidermidis (14-583) assessed as inhibition of microbial growth incubated for 24 hrs by microdilution assay. Format: functional.
A short description of series [12]: Selectivity index, ratio of IC50 for cytotoxicity against African green monkey Vero cells to MIC for antibacterial activity against methicillin-resistant Staphylococcus aureus (14-2095).
The subject of series [13] is Escherichia coli. The series can be described thus: Antibacterial activity against extended-spectrum beta-lactamase-positive Escherichia coli (14-2081) assessed as inhibition of microbial growth up to 50 ug/ml incubated for 24 hrs by microdilution assay. Type of series: functional.

Values after ≈ are worked out from the molar mass of the structure shown. Active and inactive are the calls of the source.

On to `COc1cc(C[C@H](C)[C@@H](C)Cc2ccc(O)c(OC)c2)ccc1O`, for which the results for the MIC in the series with Bacillus subtilis, in the series with Salmonella enterica and in the series with Jonesia denitrificans were 1600 µM (≈ 529 µg/mL), 3100 µM (≈ 1020 µg/mL) and 400 µM (≈ 132 µg/mL), respectively.

On to `COc1cc(C[C@@H](C)[C@@H](C)Cc2ccc(O)c(OC)c2)ccc1O` [MESODIHYDROGUAIARETIC ACID], for which the MIC with Bacillus subtilis came to 1600 µM (≈ 529 µg/mL); against Staphylococcus aureus [1], 1600 µM (≈ 529 µg/mL); against Jonesia denitrificans, 1600 µM (≈ 529 µg/mL); against Staphylococcus aureus [2], 50 µg/mL (≈ 151 µM); in series [3] it was 50 µg/mL (≈ 151 µM).

As for `COc1cc(C[C@@H](C)[C@H](C)Cc2ccc(O)c(OC)c2)ccc1O` [(-)-DIHYDROGUAIARETICACID], the MIC against Bacillus subtilis is 1600 µM (≈ 529 µg/mL); in the series with Jonesia denitrificans, 400 µM (≈ 132 µg/mL).

On to `COc1cc(C[C@@H](C)[C@@H](C)Cc2ccc(OC(C)=O)c(OC)c2)ccc1O` (racemic), for which the outcome (in series [4]; in the series with Pseudomonas aeruginosa; in the series on Klebsiella pneumoniae [7]; with Klebsiella pneumoniae [8]; with Acinetobacter baumannii; with Escherichia coli [9]) was inactive. In addition, the result in the series on Providencia rettgeri and in the series on Escherichia coli [13] was inactive. For the same compound, the MIC in series [5] was above 50 µg/mL; with Enterococcus faecium it was above 50 µg/mL; with Staphylococcus aureus [10] it was 25 µg/mL; in series [11] it was above 50 µg/mL; in series [3], 50 µg/mL (≈ 134 µM). The selectivity ratio in series [6] turned out to be 2.23. Also, in the series on Vero, the 50% inhibitory concentration (IC50) amounted to 112 µg/mL (≈ 300 µM). In addition, the “Selectivity Index” value in series [12] stood at 4.46. In addition, in [3], the “-logMIC” value was determined as 4.07.

One may read the MIC as the smallest concentration in the dilution series that meets the test's criterion for growth inhibition. The IC50 is the concentration needed to halve the response being measured.
